Results as given in patent publication US8759488B2, “High stability streptavidin mutant proteins” (Isis Innovation Limited, priority 2009, dated 2014).

What was measured:
[1] = Thermostability of the tetramer structure (SDS-PAGE); type: physicochemical; settings: absence of biotin, heated 3 min
From the text: Streptavidin naturally occurs in tetrameric form i.e. made up of four streptavidin subunits. Streptavidin tetramers will however dissociate into monomeric form at high temperatures. […] For example, thermostability can be measured in terms of the temperature at which 50% of streptavidin is in the tetrameric form and 50% is in the monomeric form i.e. the temperature at which there is 50% dissociation.
Thermostability can be easily determined by heating streptavidin or a mutant thereof to a particular temperature and then placing on ice. The amounts of subunits/tetramers present can be determined using SDS-PAGE and quantifying band intensities.
3 μM streptavidin or traptavidin in PBS was heated at the indicated temperature for 3 min in a Bio-Rad DNA Engine® Peltier Thermal Cycler and then immediately placed on ice (Bayer et al., 1996, Electrophoresis, 17, 1319-1324). Samples were mixed with 6×SDS-PAGE loading buffer and loaded onto a 18% polyacrylamide gel. The 100% monomer positive control was mixed with SDS loading buffer prior to heating at 95° C. for 3 min. Band intensities were quantified using a ChemiDoc XRS imager and QuantityOne 4.6 software (Bio-Rad).

[2] = Thermostability of biotin-conjugate binding (agarose gel); settings: for dissociation of biotinylated DNA at 70° C.: 3 min
From the text: For example, thermostability for biotin or a biotin conjugate can be measured in terms of the temperature at which 50% of the biotin or biotin conjugate is bound by the streptavidin, i.e. the temperature at which there is 50% dissociation. […] Thermostability for biotin or a biotin conjugate can be easily determined by heating streptavidin or a mutant thereof with biotin or a biotin conjugate to a particular temperature and then placing on ice. The amounts of free versus bound biotin conjugate present can be determined using an agarose gel and quantifying the band intensities.
To determine the thermostability of bioin-conjugate binding, 5.0 μM streptavidin or traptavidin in PBS was incubated with 21 nM monobiotinylated DNA in 4 μL for 30 minutes at 25° C. The samples were made up to a total volume of 10 μL with a final concentration of 100 μM biotin, 20 mM Tris acetate, 1 mM DDT, 2 mM magnesium acetate and 20 mM potassium glutamate pH 7.5 and were incubated for 5 minutes at 25° C. Samples were then heated at the indicated temperature for 3 minutes using a Thermal Cycler and cooled to 10° C. An agarose gel of 1.5% was run at 6.0V/cm in TAE at 25° C. for 45 minutes and DNA stained with ethidium bromide was visualized using a ChemiDoc XRS imager and QuantityOne 4.6 software. The percentages were calculated as 100× the intensity of the band for free DNA divided by the summed intensities of the bands for free and bound DNA. The 439 bp biotinylated DNA was prepared by PCR using Taq polymerase employing the primers Fts1 and the internally biotinylated primer bioFts2 (Eurofins) from the plasmid pJEG41-N1.

[3] = tested on: AP-IGF1R/BirA-ER expressing COST cells; experiment: Cellular imaging with Alexa Fluor 555 conjugates; type: cell-based
Experimental: Streptavidin and […] labeled with Alexa Fluor 555 by adding 1/10 volume of 1 M NaHCO3 pH 8.3 and then a 10-fold molar excess of Alexa Fluor 555 succinimidyl ester (Invitrogen) (stock dissolved at 1 mg/mL in dry dimethylformamide) and incubating for 4 hr at room temperature. Free dye was separated using 1 mL packed volume Sephadex G-25 (Sigma) in a poly-prep column. Fractions containing labelled protein were pooled and dye was further removed by three rounds of dialysis in PBS. COST cells were grown in DMEM with 10% Fetal Calf Serum, 50 U/mL penicillin and 50 μg/mL streptomycin. Cells were transfected using Lipofectamine 2000 (Invitrogen) following manufacturer's instructions with 0.25 μg AP-IGF1R, 0.2 μg BirA-ER and 0.05 μg H2B-ECFP per well of a 48 well plate. Cells were incubated with 10 μM biotin overnight for optimum biotinylation by BirA-ER. On the next day, cells were washed 3× in PBS with 5 mM MgCl2 (PBS/Mg) and kept thereafter at 4° C. Cells were incubated for 15 min in PBS/Mg with 1% dialyzed BSA and 0.4 μM Alexa Fluor 555 conjugated […]. Cells were washed with PBS/Mg 3× before imaging live. Cells were imaged using a wide-field DeltaVision Core fluorescent microscope (AppliedPrecision) with a 40× oil-immersion lens. ECFP (436DF20 excitation, 480DF40 emission, Chroma 86002v1 dichroic), Alexa Fluor 555 (540D420 excitation, 600DF50 emission, Chroma 84100bs polychroic), and bright-field images were collected and analyzed using softWoRx 3.6.2 software. Typical exposure times were 0.1-1.0 s and fluorescence images were background-corrected. Different samples in the same experiment were prepared, imaged and analyzed under identical conditions.

[4] = Biotin-4-fluorescein (B-4-F) off-rate assay; type: binding
Experimental: The off rate of streptavidin or the streptavidin mutants for biotin can be easily measured using the Biotin-4-fluorescein (B-4-F) off-rate assay described in the Examples. In this assay streptavidin (or a mutant thereof) is incubated with 12 nM B-4-F for 30 minutes at 37° C., where the binding of B-4-F to streptavidin quenches fluorescence. Excess biotin (100 μM) is added and fluorescence is then measured every 10 minutes for 10-18 hours. The rate of recovery of fluorescence indicates B-4-F off-rate from the streptavidin. Thus, the quicker that the fluorescence is seen in the sample the higher is the off rate, as fluorescence only starts to increase once B-4-F has dissociated from streptavidin.
The amount of B-4-F recovered during an incubation with wildtype streptavidin is at least 9%, for example 10, 11 or 12%. The amount of B-4-F recovered after a 10 hour incubation with a mutant streptavidin of the present invention may be less than 9%, for example less than 8, 7, 6, 5, 4, 3, 2 or 1%. Particularly, the amount of B-4-F recovered may be 2-3%.
The off-rate of biotin-4-fluorescein from avidin, streptavidin or traptavidin was measured using a PHERAstar plate-reader with 480 nm excitation and 520 nm emission (BMG LABTECH). In this assay the binding of biotin-4-fluorescein to an excess of binding protein results in quenching of fluorescein emission (Kada et al., 1999, Biochim. Biophys. Acta, 1427, 33-43). As the biotin-4-fluorescein dissociates, the fluorescence recovers. The assay was performed in the presence of excess biotin so that sites left open by biotin-4-fluorescein dissociation are immediately re-filled by biotin. 1 μM protein in 10 μL PBS was added to 12 nM biotin-4-fluorescein (Invitrogen), 0.12 mg/mL BSA in 170 μL PBS and incubated for 1 hr at 37° C. 20 μL PBS or 20 μL 1 mM biotin in PBS was then added and fluorescence measurements immediately started at 37° C. Percentage dissociation was calculated as (signal with biotin−signal without biotin)/(signal without quenching−signal without biotin)×100.
Since biotin-4-fluorescein fluorescence is decreased at low pH, 100 nM streptavidin, S52G R53N streptavidin, S52G R53S streptavidin, or traptavidin was incubated with 12 nM biotin-4-fluorescein in 100 mM NaCl, 30 mM sodium citrate pH 5.0 for 3 hr at 25° C., before incubating at 37° C. and adding 100 μM biotin and incubating for various times. Samples were then placed on ice to block further dissociation, adjusted to pH 7.2 with 1M HEPES pH 8.3, and fluorescence intensity was immediately measured as above. p-values were calculated using two-tailed Student t-tests from the data at the final timepoint.

[5] = tested on: biotinylated DNA with FtsK50C; experiment: FtsK displacement assay; design: species or system E. coli; settings: in the presence of ATP, 2 min, 25° C.
Experimental: The FtsK displacement assay was performed at 25° C. in 25 mM Tris pH 7.5, 10 mM MgCl2. 5.9 nM DNA fragment was incubated with 0.5 μM streptavidin or traptavidin for 15 min, followed by 100 μM biotin to block free biotin binding sites. 1 μM FtsK50C was added and allowed to bind to the DNA for 5 min. 2.5 mM ATP was added to start the reaction, which was stopped after 2 min with 0.1% SDS and 20 mM EDTA. Samples were incubated for 20 mM to allow FtsK50C denaturation, mixed with 10× gel loading buffer (250 mM Tris pH 7.5, 20 mM EDTA, 50% glycerol, 2.5% bromophenol blue) and loaded on a 1.5% agarose gel in 1×TBE (89 mM Tris, 89 mM boric acid, 2 mM EDTA, pH 8.3) at 10 V/cm for 2 hr at 25° C. Gels were stained with SYBR Green (Invitrogen) for 2 hr, washed in ddH2O for 30 mM, imaged using a Fuji FLA3000 scanner, and quantified using Image Gauge software (Fuji). p-values were calculated using a two-tailed Student t-test.

[6] = type: binding
Experimental: AFM cantilevers (Veeco MLCT-AUHW) with a nominal spring constant of 0.01 N/m were used in all measurements and calibrated by the thermal fluctuation method (Hutter and Bechhoefer, 1993, Review of Scientific Instruments, 64, 1868-1873). Cantilevers were briefly washed in acetone and then UV irradiated for 15 minutes. Cantilevers were then briefly dipped in 0.1M NaHCO3 pH 9.0, air-dried, and coated in 0.5 mg/mL biotinamidocaproyl-Bovine Serum Albumin (biotin-BSA) (Sigma) overnight at 4° C. in a humidified chamber. Cantilevers were washed three times in PBS and then coated with 0.01-0.3 mg/mL streptavidin or […] for 15 mins at 25° C. […] dishes were coated with 0.1M NaHCO3 pH 9 and then 0.5 mg/mL non-recombinant streptavidin (from Streptomyces avidinii, Pierce) in 0.1M NaHCO3 pH 9 overnight in a humidified chamber at 4° C. Biotinylated agarose beads (Sigma) were aspirated onto the dish. Measurements were conducted at 25° C. with a custom built AFM (Rico and Moy, 2007, J. Mol. Recogniti., 20, 495-501). […] Single molecule rupture forces were determined by calculating the force in the retraction trace at the initial point of rupture, using Igor Pro 6.04 (Wavemetrics Inc.). […] The loading rate was determined as the slope of the force vs time plot before the rupturing of the single molecule bond and significance was evaluated with the Mann-Whitney test.

[7] = On-rate assay (biotin-4-fluorescein quenching); type: binding
Experimental: The on rate can be measured again using an adapted B-4-F assay as described above. […] The on rate can therefore be established by the decrease in the amount of fluorescence which occurs over the incubation time. The faster the rate of decrease in fluorescence, the higher the on rate.
The on-rate of biotin-4-fluorescein from streptavidin or traptavidin was measured in PBS on a PHERAstar plate-reader (BMG LABTECH). In this assay the binding of biotin-4-fluorescein to streptavidin/traptavidin results in quenching of the fluorescein emission (Kada et al., 1999). 20 μL 10 nM streptavidin or traptavidin was added to 180 μL 56 μM biotin-4-fluorescein and the fluorescein emission at measured every 6 s at 25° C. The concentration of free biotin-4-fluorescein was calculated as (signal with biotin−signal without biotin)/(signal without quenching−signal without biotin)×50 μM starting biotin-4-fluorescein. Linear regression using GraphPad Prism was applied to the plot of 1n free biotin-4-fluorescein against time, with the gradient equal to kon×[streptavidin or traptavidin].

[8] = cited from earlier work
[9] = depending on the conjugate; cited from earlier work
[10] = free biotin; cited from earlier work
[11] = 37° C., pH 7.4, excess free biotin

Compound: traptavidin: S52G R53D mutant of core streptavidin with His6 tag, tetramer; subunit SEQ ID NO. 5
- temperature at which there is 50% dissociation of tetramer into monomer [1]: ~85 °C
- dissociation of biotinylated DNA at 70° C. [2]: most ligand was still bound
- binding to untransfected neighboring cells expressing only AP-IGF1R ([3]; Alexa Fluor 555 conjugate): no detectable binding
- signal on AP-IGF1R/BirA-ER expressing cells ([3]; Alexa Fluor 555 conjugate): strong signal
- specificity for cellular imaging ([3]; Alexa Fluor 555 conjugate): high specificity
- staining compared with streptavidin ([3]; each conjugated to Alexa Fluor 555): comparable
- binding to equivalently treated cells when pre-blocked with free biotin ([3]; pre-blocked with free biotin): minimal binding
- biotin conjugate off-rate (biotin-4-fluorescein dissociation) [4, 11]: dramatically reduced biotin conjugate off-rate
- change at the initial time-point (dissociation) [4, 11]: ~2%
- dissociation over the subsequent 12 hr [4, 11]: very little dissociation
- off-rate at pH 5 of biotin-4-fluorescein ([4]; pH 5, 37° C.): significantly slower than streptavidin
- dissociated from the DNA by FtsK50C translocation [5]: 11%
- mechanical stability to a biotinylated ligand [6]: significantly greater mechanical stability than streptavidin
- on-rate reduction relative to streptavidin [7]: approximately 2 fold

Compound: O=C(O)CCCC[C@@H]1SC[C@@H]2NC(=O)N[C@@H]21 [biotin, cis-hexahydro-2-oxo H-thieno[3,4] imidazole-4-pentanoic acid]
- pKa [8]: about 4

Compound: streptavidin: wildtype streptavidin protein comprising four wildtype subunits; core streptavidin with C-terminal His6 used in the tests [reference compound]
- temperature at which there is 50% dissociation of tetramer into monomer [1]: ~75 °C
- temperature at which there is 50% dissociation of tetramer into monomer ([1]; listed as wildtype streptavidin): 70-75 °C
- temperature at which there is 50% dissociation of biotin or biotin conjugate [2]: 50-60 °C
- dissociation of biotinylated DNA at 70° C. [2]: complete dissociation
- half life for conjugated biotin [9]: 6 to 100 h
- biotin conjugate off-rate (biotin-4-fluorescein dissociation) [4, 11]: dissociated steadily
- amount of B-4-F recovered ([4]; 10 hour incubation, 37° C., excess biotin): at least 9%
- half life of free biotin [10]: approximately 6.6 hr
- off rate of biotin [10]: 2.9e-05 s⁻¹
- dissociated from the DNA by FtsK50C translocation [5]: 33%

Compound: avidin: Avidin (Sigma), biotin binding protein used as comparator [reference compound]
- biotin conjugate off-rate (biotin-4-fluorescein dissociation) [4, 11]: dissociated very much faster than streptavidin
